Experimental data taken from US11434241B2, “Pyrimidine derivatives for prevention and treatment of bacterial infections” (UNIVERSITE DE LIEGE, priority 2018, dated 2022).
Converted amounts (≈) assume the structure as drawn. Like-named read-outs stand apart in the source and are kept apart here.

Tests used:
[1] = system: Staphylococcus epidermidis (ATCC 35984, also known as RP62A or MRSE); assay: MIC determination on S. epidermidis (EUCAST, OD600 after overnight growth in MHB); format: cell-based
Method: The Minimal Inhibitory Concentration (MIC) of molecules 2329, 2348, 2412, 2452 and 2461 was determined on Staphylococcus epidermidis (ATCC 35984, also known as RP62A) according to EUCAST (European Committee on Antimicrobial Susceptibility Testing) recommendations.
Briefly, a single colony grown on a Tryptic Soy Agar (TSA) plate was resuspended and cultured in Tryptic Soy Broth (TSB) overnight (O/N) in aerobic conditions (37° C. with 220 rpm shaking), next day a 1:50 inoculum in Mueller-Hinton broth (MHB) was incubated in aerobic conditions for 3 hr and an inoculum of 1:100 dilution, corresponding to 3×10^5 CFU/ml, was incubated in presence or absence of different concentrations of the molecules in 1% DMSO (vehicle). After O/N growth the OD of each culture was measured at 600 nm in a spectrophotometer (OD600). The MIC represents the concentration at which there is no visible growth of bacteria, i.e. ΔOD at 600 nm equal to zero (blank is the medium alone).
The Minimal Inhibitory Concentration (MIC) of pyrazolopyrimidine molecules 2539, 2544, 2666,2676, 2693, 2783, 2784 and 2782 and of purine molecules 2498, 2511, 2525, 2527, 2833, and 2840 was determined on S. epidermidis (ATCC 35984, also known as RP62A or MRSE) according to EUCAST (European Committee on Antimicrobial Susceptibility Testing) recommendations.
Briefly, a single colony grown on an agar plate was resuspended and cultured in Triptic Soy Broth (TSB) medium overnight (O/N) in aerobic conditions (37° C. with 220 rpm shaking), next day a 1:50 inoculum in Mueller-Hinton broth (MHB) was incubated in aerobic conditions for 3 hr (OD=0.08-0.1) and an inoculum of 1:300 dilution, corresponding to 3×10^5 CFU/ml, was incubated in presence or absence of different concentrations of each of the molecules in 1% DMSO (vehicle). After O/N growth the OD of each culture was measured at 600 nm (600) in a spectrophotometer (Victor 3-Perkin Elmer). The MIC represents the concentration at which there is no visible growth of bacteria, i.e. ΔOD at 600 nm equal to zero (where ΔOD is the difference between the OD with the molecule and the OD of the blank, the medium alone).
(§1) Molecule 36z has been tested for its potential antibacterial activity by determining its minimal inhibitory concentration (MIC) according to protocols recommended by EUCAST to assess the efficacy of antibiotics against bacterial strains. In brief MIC in MRSA (ATCC BAA-1556) or in Xen29 (Perkin Elmer-ATCC 12600) for 36z (molecule 25 in WO2009/034386) was determined by culturing a single colony of MRSA or Xen29 in brain heart infusion (BHI) broth overnight (O/N) in aerobic conditions (37° C. with 220 rpm shaking), while MIC for MRSE (ATCC 35984) was determined by culturing MRSE in TSB O/N. Next day a 1:100 inoculum in Mueller-Hinton broth (MHB) is incubated in aerobic conditions for 3 hr (OD=0.08-0.1) and an inoculum of 1:300 dilution, corresponding to 3×10^5 CFU/ml, is incubated in presence or absence of different concentrations of the tested molecules in 1% DMSO. After O/N growth the OD of each culture was measured at 600 nm (OD600) in a spectrophotometer (Victor 3-Perkin Elmer). The MIC represents the concentration at which there is no visible growth of bacteria, i.e. ΔOD at 600 nm equal to zero (blank is the medium alone). No antibacterial activity was found against MRSA (ATCC BAA-1556), Xen29 (Perkin Elmer-ATCC 12600 or MRSE (ATCC 35984) strains when the molecule was used at concentrations up to 200 μM.

[2] = system: methicillin-resistant S. aureus (MRSA) ATCC BAA-1556; assay: MIC determination on methicillin-resistant S. aureus; format: cell-based, Staphylococcus aureus; settings: for MIC: Staphylococcus aureus; for antibacterial activity against MRSA (in words): MHB medium
Method: Further experiments are conducted using different strains of S. aureus, as clinically relevant Gram-positive bacterial strains: S. aureus ATCC 25904, methicillin-resistant S. aureus (MRSA) ATCC BAA-1556, Glycopeptide intermediate-resistant (GISA) S. aureus Mu-50 (ATCC 700695) in order to determine the Minimal Inhibitory Concentration (MIC) which is the minimal concentration required to prevent bacterial growth. The bioluminescent strain S. aureus Xen29 (ATCC 12600) was also used. This strain is derived from the parental strain S. aureus ATCC 12600, a pleural fluid isolate, which is also designated as NCTC8532.
A single colony selected from the different strains of S. aureus is resuspended and cultured in brain heart infusion (BHI) broth overnight (O/N) in aerobic conditions (37° C. with 220 rpm shaking), next day a 1:100 inoculum in Mueller-Hinton broth (MHB) is incubated in aerobic conditions for 3 hr (=OD0.08-0.1) and an inoculum of 1:300 dilution, corresponding to 3×10^5 CFU/ml, is incubated in presence or absence of different concentrations of the tested molecules in 1% DMSO. After O/N growth the OD of each culture was measured at 600 nm (OD600) in a spectrophotometer (Victor 3-Perkin Elmer). The MIC represents the concentration at which there is no visible growth of bacteria, i.e. ΔOD at 600 nm equal to zero (blank is the medium alone). […] The MIC of molecule 2329 against Glycopeptide intermediate-resistant (GISA) S. aureus Mu-50 (ATCC 700695) is in between 25 and 30 μM, while it is above 50 μM for molecules 2348, 2412, and 2452.
Further experiments are conducted using different strains of S. aureus, as clinically relevant Gram-positive bacterial strains: methicillin-resistant S. aureus (MRSA) ATCC BAA-1556 and S. aureus Xen29 (Perkin Elmer ATCC 12600).
To determine the MIC of the above mentioned molecules in MRSA or in Xen29, a single colony of MRSA or Xen29 is resuspended and cultured in brain heart infusion (BHI) broth overnight (O/N) in aerobic conditions (37° C. with 220 rpm shaking), next day a 1:100 inoculum in Mueller-Hinton broth (MHB) is incubated in aerobic conditions for 3 hr (OD=0.08-0.1) and an inoculum of 1:300 dilution, corresponding to 3×10^5 CFU/ml, is incubated in presence or absence of different concentrations of the tested molecules in 1% DMSO. After O/N growth the OD of each culture was measured at 600 nm (OD600) in a spectrophotometer (Victor 3-Perkin Elmer). The MIC represents the concentration at which there is no visible growth of bacteria, i.e. ΔOD at 600 nm equal to zero (blank is the medium alone).
as §1

[3] = Staphylococcus epidermidis, Mueller-Hinton broth (MHB), read-out: MIC S. epidermidis RP62

Row | SMILES | MIC [1, 3] [µM] | MIC ([2]; read-out: MIC S. aureus MRSA) [µM] | antibacterial activity / inhibition of MRSE growth (in words) ([1]; MHB medium) | MIC ([1]; Staphylococcus epidermidis, read-out: MIC MRSE) [µM] | antibacterial activity against MRSA (in words) [2] | MIC ([2]; read-out: MIC MRSA) [µM] | MIC ([1]; MHB medium, tested up to 100 μM, read-out: MIC MRSE) [µM] | MIC ([1]; Staphylococcus epidermidis, MHB medium, tested up to 100 μM, read-out: MIC MRSE) [µM]
1 | CCCSc1nc(N[C@@H]2C[C@H]2c2ccc(F)c(F)c2)c2ncn(CC)c2n1 [Molecule 2348, N-((1R,2S)-2-(3,4-difluorophenyl)cyclopropyl)-9-ethyl-2-(propylthio)-9H-purin-6-amine] | 20 (≈ 7.79 µg/mL) | 25 (≈ 9.74 µg/mL) | – | – | – | – | – | –
2 | C#CCn1cnc2c(N[C@@H]3C[C@H]3c3ccc(F)c(F)c3)nc(SCCC)nc21 [Molecule 2452, N-((1R,2S)-2-(3,4-difluorophenyl)cyclopropyl)-9-(prop-2-yn-1-yl)-2-(propylthio)-9H-purin-6-amine] | > 50 | 25 to 50 (≈ 9.99 to 20 µg/mL) | – | – | – | – | – | –
3 | CCSc1nc(N[C@@H]2C[C@H]2c2ccc(F)c(F)c2)c2cnn(C)c2n1.Cl [Molecule 2666, N-((1R,2S)-2-(3,4-difluorophenyl)cyclopropyl)-6-(ethylthio)-1-methyl-1H-pyrazolo[3,4-d]pyrimidin-4-amine hydrochloride] | – | – | able to inhibit MRSE growth | 50 | active | 20 | – | –
4 | CCn1cnc2c(N[C@@H]3C[C@H]3c3ccc(F)c(F)c3)nc(SC)nc21 [Molecule 2511, N-((1R,2S)-2-(3,4-difluorophenyl)cyclopropyl)-9-ethyl-2-(methylthio)-9H-purin-6-amine] | – | – | able to inhibit MRSE growth | – | active | 30 (≈ 10.8 µg/mL) | >100 | > 100
5 | CCCSc1nc(N[C@@H]2C[C@H]2c2ccc(F)c(F)c2)c2ncn(C)c2n1 [Molecule 2329, N-((1R,2S)-2-(3,4-difluorophenyl)cyclopropyl)-9-methyl-2-(propylthio)-9H-purin-6-amine] | 20 (≈ 7.51 µg/mL) | 20 (≈ 7.51 µg/mL) | – | – | – | – | – | –
6 | C=CCn1cnc2c(N[C@@H]3C[C@H]3c3ccc(F)c(F)c3)nc(SCCC)nc21 [Molecule 2412, 9-allyl-N-((1R,2S)-2-(3,4-difluorophenyl)cyclopropyl)-2-(propylthio)-9H-purin-6-amine] | > 50 | 25 to 50 (≈ 10 to 20.1 µg/mL) | – | – | – | – | – | –
